The IC50 is the midpoint of a concentration-inhibition curve. High values mean a need for much substance, low ones inhibition by little substance.

Test [1] concerns the target T1, human SPPL2a (Homo sapiens, UniProt Q8TCT8).
T1 sequence (Q8TCT8 26-520): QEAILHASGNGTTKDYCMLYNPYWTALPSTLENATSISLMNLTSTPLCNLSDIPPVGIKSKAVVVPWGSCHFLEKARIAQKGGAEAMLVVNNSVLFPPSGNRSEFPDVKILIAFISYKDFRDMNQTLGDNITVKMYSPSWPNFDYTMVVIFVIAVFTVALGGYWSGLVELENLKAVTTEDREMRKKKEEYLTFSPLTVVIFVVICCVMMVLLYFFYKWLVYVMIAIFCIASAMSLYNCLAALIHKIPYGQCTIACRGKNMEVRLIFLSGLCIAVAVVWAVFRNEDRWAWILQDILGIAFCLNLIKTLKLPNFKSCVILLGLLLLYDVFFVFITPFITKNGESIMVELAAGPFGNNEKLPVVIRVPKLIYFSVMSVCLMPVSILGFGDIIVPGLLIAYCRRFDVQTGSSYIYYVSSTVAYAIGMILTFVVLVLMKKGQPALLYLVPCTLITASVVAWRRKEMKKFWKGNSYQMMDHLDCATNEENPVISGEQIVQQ
Put plainly: Sppl2a RGA (reporter gene assay) in HEK293 cells. The test is classed as cell-based. Also noted: expressed in transfected cells; host or cells: HEK293 (transient). The note with it: NT-TNF-VP16-Gal4 substrate, Gal4-luciferase reporter, 24 h. The text has this: Sppl2a RGA (Reporter Gene Assay):
Sppl2a is an intramembrane aspartyl protease with similarities to presenilin, the active subunit of the γ-secretase complex. The assay is based on the coupling of the proteolytic degradation of a membrane bound synthetic substrate (VP16-Gal4 fusion protein with the N-terminal domain of TNF alpha), which migrates to the nucleus upon cleavage, with the Gal4 driven expression of luciferase. Inhibition of Sppl2a results in a reduction of nuclear VP16-Gal4 activator and therefore in a reduction of the production of luciferase. The luciferase dependent-luminescence is plotted against the concentrations of compound to generate a dose response curve, which allows the calculation of the IC50 value.
DNA vectors encoding human Sppl2a, NT-TNF-VP16-Gal4 and a Gal4-luciferase reporter were transiently transfected in HEK293 cells. In a typical experiment 5 μg plasmid for SPPL2a, 10 μg plasmid encoding the reporter Gal4-luciferase and 20 μg plasmid encoding the substrate NT-TF-VP16-Gal4 were mixed together. The DNA mixture was combined with 107 μl FuGENE® (Promega), 735 μl Opti-MEM® (Life Technologies) and incubated for 5 minutes at RT. To this mixture 20 mL of concentrated HEK293 cells were added and thoroughly mixed. The cell suspension was distributed to a white solid 384 well plate. Within 5 hours, 50 nl of compound in DMSO was stamped into the wells via pintool. The plate was incubated for 24 h at 37° C., 5% CO2 in a humidified incubator, before the addition of 25 μl Bright Glo. After incubation at RT for 5 min, the plate was transferred to a luminometer and the luminescence was measured. The IC50 was determined by plotting compound concentration vs. normalized luminescence values.
(In general: In a reporter assay the amount or activity of a reporter protein is the signal.)

For test [2], the target named is T1, human SPPL2a. As to the kind of experiment: Sppl2a TL (translocation) imaging assay in U-2 OS cells. The test is classed as cell-based. Also noted: expressed in transfected cells. Particulars: U-2 OS cells expressing human SPPL2a and EGFP-TNFα(aa1-76) NTF substrate; 24 h. How it is done:
SPPL2a, TL in U-2 OS Cells. Stable U-2 OS cell lines expressing human SPPL2a constitutively and a EGFP-labeled TNFα(aa1-76) NTF substrate under a doxycycline-regulated promoter were used for the imaging assays. Cells were seeded at 3000 cells/30 μL/384-well in DMEM/GlutaMax™-I (Invitrogen) supplemented with tetracycline-free 10% FBS (Amimed) and incubated at 37° C., 5% CO2 for 3-4 h. Subsequently, 3.3 μL of inhibitors, prediluted in doxycycline-containing medium for 11-point concentration-response curves, were added to each well using a CyBi well liquid handling device (Cybio AG, Jena, Germany) to result in final inhibitor concentrations ranging from 100 μM to 1 nM (final DMSO concentration 0.9% (v/v)) and 5 μg/mL doxycycline). The cells were incubated with inhibitor at 37° C., 5% CO2 for 24 h. Thereafter cell were fixed in 4% PFA/PBS and in parallel, nuclei were stained with Hoechst (Invitrogen) 1:5000 in PBS for 30 min. The plates were imaged using a Cellomics ArrayScan VTI HCS reader with 10×/0.3NA objective (Thermo Fisher Scientific, USA). Six images per well were acquired. Images for the EGFP signal (Ex395, Em509) and the Hoechst nuclear dye (Ex350, Em425) were acquired simultaneously with image analysis using the “Nuclear Translocation” assay algorithm of the Cellomics ArrayScan software. Nuclei were detected based on the Hoechst staining, the nuclear mask was transferred to the EGFP channel, and a 4 pixel wide cytoplasm ring region was defined around the nucleus. The intensity of the EGFP signal was measured both in the nuclear and in the cytoplasm ring region of each individual cell (in general 800-1000 individual cells were analyzed per well), and the difference of the average nuclear versus average cytoplasmic intensity of the EGFP signal was calculated (“CircRingAvgIntenDiffCh2”=“CircAvgIntenCh2”−“RingAvgIntenCh2”). Additionally the number of cells were acquired (feature termed “ValidCellCount”) and used to calculate cell toxicity (CC50). Percent inhibition was calculated relative to the positive (0.5 μM LY-411,575=100% inhibition) and negative (DMSO=0% inhibition) controls. The IC50 value was calculated from the plot of percentage of inhibition vs inhibitor concentration using nonlinear regression analysis software, e.g., Origin (OriginLab Corp.).

With `Cc1cnoc1C(=O)NC[C@H](C(=O)N[C@@H]1C(=O)N2CCCN2C(=O)c2ccccc21)C(F)(F)F` [Example 2, N—((R)-2-(((S)-5,11-dioxo-2,3,10,11-tetrahydro-1H,5H-benzo[d]pyrazolo[1,2-a][1,2]diazepin-10-yl)carbamoyl)-3,3,3-trifluoropropyl)-4-methylisoxazole-5-carboxamide], the IC50 against human SPPL2a [1] stood at 180 nM; on human SPPL2a [2], 450 nM.
For `CC[C@H](CNC(=O)c1sc(-c2ccc(C(F)(F)F)nc2)nc1Cl)C(=O)N[C@@H]1C(=O)N2CCCN2Cc2ccccc21` [Example 15, 4-Chloro-N-((R)-2-(((S)-11-oxo-2,3,10,11-tetrahydro-1H,5H-benzo[d]pyrazolo [1,2-a][1,2]diazepin-10-yl)carbamoyl)butyl)-2-(6-(trifluoromethyl)pyridin-3-yl)thiazole-5-carboxamide], the IC50 on human SPPL2a [1] came to 8 nM; on human SPPL2a [2], 11 nM.
`CC[C@H](CNC(=O)c1sc(-c2ccc(C(F)(F)F)nc2)nc1C)C(=O)N[C@@H]1C(=O)N2CCCN2Cc2ccccc21` [Example 18, 4-Methyl-N-((R)-2-(((S)-11-oxo-2,3,10,11-tetrahydro-1H,5H-benzo[d]pyrazolo [1,2-a][1,2]diazepin-10-yl)carbamoyl)butyl)-2-(6-(trifluoromethyl)pyridin-3-yl)thiazole-5-carboxamide]: the IC50 is 3 nM against human SPPL2a [1] and 12 nM against human SPPL2a [2].
The like results for `CC[C@H](CNC(=O)c1sc(-c2cc(C)no2)nc1C)C(=O)N[C@@H]1C(=O)N2CCCN2Cc2ccccc21` [Example 20, 4-Methyl-2-(3-methylisoxazol-5-yl)-N-((R)-2-(((S)-11-oxo-2,3,10,11-tetrahydro-1H,5H-benzo[d]pyrazolo [1,2-a][1,2]diazepin-10-yl)carbamoyl)butyl) thiazole-5-carboxamide] were, in that order, 220 nM and 12 nM.
In the same order, the values of `CC[C@H](CNC(=O)c1sc(C2=CCCC2)nc1Cl)C(=O)N[C@@H]1C(=O)N2CCCN2C(=O)c2ccccc21` [Example 28, 4-Chloro-2-(cyclopent-1-en-1-yl)-N-((R)-2-(((S)-5,11-dioxo-2,3,10,11-tetrahydro-1H,5H-benzo[d]pyrazolo [1,2-a][1,2]diazepin-10-yl)carbamoyl)butyl) thiazole-5-carboxamide] are 88 nM and 28 nM.
In the same order, the values of `CC[C@H](CNC(=O)c1scnc1C)C(=O)N[C@@H]1C(=O)N2CCCN2Cc2ccccc21` [Example 29, 4-Methyl-N-((R)-2-(((S)-11-oxo-2,3,10,11-tetrahydro-1H,5H-benzo[d]pyrazolo [1,2-a][1,2]diazepin-10-yl)carbamoyl)butyl) thiazole-5-carboxamide] are 84 nM and 29 nM.
As to `CCCOc1nc(C)c(C(=O)NC[C@@H](CC)C(=O)N[C@@H]2C(=O)N3CCCN3Cc3ccccc32)s1` [Example 30, 4-Methyl-N-((R)-2-(((S)-11-oxo-2,3,10,11-tetrahydro-1H,5H-benzo[d]pyrazolo [1,2-a][1,2]diazepin-10-yl)carbamoyl)butyl)-2-propoxythiazole-5-carboxamide], the IC50 at human SPPL2a [1] came to 16 nM; at human SPPL2a [2], 29 nM.
As for `CC[C@H](CNC(=O)c1c(C)noc1C(F)(F)F)C(=O)N[C@@H]1C(=O)N2CC3(CC3)CN2C(=O)c2ccccc21` [Example 31, N-((R)-2-(((S)-5,11-Dioxo-10,11-dihydro-1H,3H,5H-spiro[benzo[d]pyr-azolo[1,2-a][1,2]diazepine-2,1′-cyclopropan]-10-yl)carbamoyl)butyl)-3-methyl-5-(trifluoromethyl) isoxazole-4-carboxamide], the IC50 against human SPPL2a [1] is 22 nM; at human SPPL2a [2], 33 nM.
In the same order, the values of `CC[C@H](CNC(=O)c1sc(-c2ccc(OC)nc2)nc1Cl)C(=O)N[C@@H]1C(=O)N2CCCN2C(=O)c2ccccc21` [Example 34, 4-Chloro-N-((R)-2-(((S)-5,11-dioxo-2,3,10,11-tetrahydro-1H,5H-benzo[d]pyrazolo [1,2-a][1,2]diazepin-10-yl)carbamoyl)butyl)-2-(6-methoxypyridin-3-yl)thiazole-5-carboxamide] are 50 nM and 43 nM.
The like results for `CC[C@H](CNC(=O)c1sncc1C)C(=O)N[C@@H]1C(=O)N2CCCN2C(=O)c2ccccc21` [Example 35, N-((R)-2-(((S)-5,11-Dioxo-2,3,10,11-tetrahydro-1H,5H-benzo[d]pyrazolo [1,2-a][1,2]diazepin-10-yl)carbamoyl)butyl)-4-methylisothiazole-5-carboxamide] were, in that order, 34 nM and 45 nM.
With `CCc1nnsc1C(=O)NC[C@@H](CC)C(=O)N[C@@H]1C(=O)N2CC3(CC3)CN2C(=O)c2ccccc21` [Example 36, N-((R)-2-(((S)-5,11-Dioxo-10,11-dihydro-1H,3H,5H-spiro[benzo[d]pyr-azolo[1,2-a][1,2]diazepine-2,1′-cyclopropan]-10-yl)carbamoyl)butyl)-4-ethyl-1,2,3-thiadiazole-5-carboxamide], the IC50 against human SPPL2a [1] worked out at 34 nM; on human SPPL2a [2] it was 45 nM.
Regarding `CC[C@H](CNC(=O)c1sc(-c2ccc(OC(F)F)nc2)nc1Cl)C(=O)N[C@@H]1C(=O)N2CCCN2C(=O)c2ccccc21` [Example 37, 4-Chloro-2-(6-(difluoromethoxy)pyridin-3-yl)-N-((R)-2-(((S)-5,11-dioxo-2,3,10,11-tetrahydro-1H,5H-benzo[d]pyrazolo [1,2-a][1,2]diazepin-10-yl)carbamoyl)butyl) thiazole-5-carboxamide], the IC50 was 32 nM on human SPPL2a [1] and 53 nM on human SPPL2a [2].
Regarding `Cc1nc(-c2ccc(C(F)(F)F)nc2)sc1C(=O)NC[C@H](C(=O)N[C@@H]1C(=O)N2CCCN2C(=O)c2ccccc21)C(F)(F)F` [Example 38, N-((R)-2-(((S)-5,11-Dioxo-2,3,10,11-tetrahydro-1H,5H-benzo[d]pyrazolo [1,2-a][1,2]diazepin-10-yl)carbamoyl)-3,3,3-trifluoropropyl)-4-methyl-2-(6-(trifluoromethyl)pyridin-3-yl)thiazole-5-carboxamide], the results for the IC50 on human SPPL2a [1] and against human SPPL2a [2] were 43 nM and 54 nM, respectively.
On to `CC[C@H](CNC(=O)c1scnc1Cl)C(=O)N[C@@H]1C(=O)N2CCCN2Cc2ccccc21` [Example 39, 4-Chloro-N-((R)-2-(((S)-11-oxo-2,3,10,11-tetrahydro-1H,5H-benzo[d]pyrazolo [1,2-a][1,2]diazepin-10-yl)carbamoyl)butyl) thiazole-5-carboxamide], for which the IC50 against human SPPL2a [1] came out at 24 nM; against human SPPL2a [2] it was 54 nM.

(Values after patent US20230365571A1, “COMPOUNDS AND COMPOSITIONS AS Sppl2a INHIBITORS” (Novartis AG, priority 2020, published 2023).)
